From patent US20220386606A1, “SPECIFICALLY SUBSTITUTED 3-PHENYL-5-SPIROCYCLOPENTYL-3-PYRROLIN-2-ONES AND THEIR USE AS HERBICIDES” (Bayer Aktiengesellschaft, priority 2019, published 2022)

What was measured:
[1] = tested on: ALOMY; assay: Pre-emergence herbicidal action against ALOMY; assay type: in vivo, Alopecurus myosuroides; conditions: 320 g/ha, scored visually after 3 weeks vs untreated controls
Outline: (§1)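 Visual percent damage, rated 3 weeks after treatment against untreated plants (0% like control, 100% plants dead). Compounds, as wettable powders or emulsion concentrates, were sprayed pre-emergence onto soil covering seeds sown in sandy loam, at 600 to 800 L/ha water with 0.2% wetting agent; pots kept in greenhouse.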

[2] = tested on: AVEFA; assay: Pre-emergence herbicidal action against AVEFA; assay type: in vivo, Avena fatua; conditions: 320 g/ha, scored visually after 3 weeks vs untreated controls
Outline: as §1

[3] = tested on: DIGSA; assay: Pre-emergence herbicidal action against DIGSA; assay type: in vivo, Digitaria sanguinalis; conditions: 320 g/ha, scored visually after 3 weeks vs untreated controls
Outline: as §1

[4] = tested on: ECHCG; assay: Pre-emergence herbicidal action against ECHCG; assay type: in vivo, Echinochloa crus-galli; conditions: 320 g/ha, scored visually after 3 weeks vs untreated controls
Outline: as §1

[5] = tested on: LOLRI; assay: Pre-emergence herbicidal action against LOLRI (Table 8, titled post-emergence at 320 g/ha); assay type: in vivo, Lolium rigidum; conditions: table stands in the pre-emergence section
Outline: as §1

[6] = tested on: SETVI; assay: Pre-emergence herbicidal action against SETVI; assay type: in vivo, Setaria viridis; conditions: 320 g/ha, scored visually after 3 weeks vs untreated controls
Outline: as §1

[7] = tested on: ABUTH; assay: Pre-emergence herbicidal action against ABUTH; assay type: in vivo, Abutylon threophrasti; conditions: 320 g/ha
Source text: Seeds of monocotyledonous and dicotyledonous weed plants and crop plants are laid out in sandy loam soil in wood-fiber pots and covered with soil. The compounds of the invention, formulated in the form of wettable powders (WP) or as emulsion concentrates (EC), are then applied to the surface of the covering soil as aqueous suspension or emulsion at a water application rate equating to 600 to 800 L/ha with addition of 0.2% wetting agent.
After the treatment, the pots are placed in a greenhouse and kept under good growth conditions for the trial plants. The damage to the test plants is scored visually after a test period of 3 weeks by comparison with untreated controls (herbicidal activity in percent (%): 100% activity=the plants have died, 0% activity=like control plants).

[8] = tested on: MATIN; assay: Pre-emergence herbicidal action against MATIN; assay type: in vivo; conditions: 320 g/ha
Outline: as §1

[9] = tested on: VIOTR; assay: Pre-emergence herbicidal action against VIOTR; assay type: in vivo, Viola tricolor; conditions: 320 g/ha
Outline: as §1

[10] = tested on: ALOMY; assay: Post-emergence herbicidal action against ALOMY; assay type: in vivo, Alopecurus myosuroides; conditions: 80 g/ha, visual assessment after about 3 weeks
Outline: (§2)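 Greenhouse post-emergence test; one-leaf stage (2–3 wk post-sowing), sandy loam. Spray: WP/EC in water, 600–800 l/ha, 0.2% wetting agent, onto green parts. Visual rating ~3 wk later, % vs untreated (100% = dead, 0% = like control).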

[11] = tested on: AVEFA; assay: Post-emergence herbicidal action against AVEFA; assay type: in vivo, Avena fatua; conditions: 80 g/ha, visual assessment after about 3 weeks
Outline: as §2

[12] = tested on: DIGSA; assay: Post-emergence herbicidal action against DIGSA; assay type: in vivo, Digitaria sanguinalis; conditions: 80 g/ha, visual assessment about 3 weeks after treatment vs untreated controls
Outline: as §2

[13] = tested on: ECHCG; assay: Post-emergence herbicidal action against ECHCG; assay type: in vivo, Echinochloa crus-galli; conditions: 80 g/ha, visual assessment about 3 weeks after treatment vs untreated controls
Outline: as §2

[14] = tested on: LOLRI; assay: Post-emergence herbicidal action against LOLRI; assay type: in vivo, Lolium rigidum; conditions: 80 g/ha, visual assessment about 3 weeks after treatment vs untreated controls
Outline: as §2

[15] = tested on: SETVI; assay: Post-emergence herbicidal action against SETVI; assay type: in vivo, Setaria viridis; conditions: 80 g/ha, visual assessment about 3 weeks after treatment vs untreated controls
Outline: as §2

[16] = tested on: ABUTH; assay: Post-emergence herbicidal action against ABUTH; assay type: in vivo, Abutylon threophrasti; conditions: 80 g/ha, visual assessment about 3 weeks after treatment vs untreated controls
Outline: as §2

[17] = tested on: HORMU; assay: Post-emergence herbicidal action against HORMU; assay type: in vivo, Hordeum murinum; conditions: 80 g/ha, visual assessment about 3 weeks after treatment vs untreated controls
Procedure: Seeds of monocotyledonous and dicotyledonous weed and crop plants are laid out in sandy loam soil in wood-fiber pots, covered with soil and cultivated in a greenhouse under good growth conditions. 2 to 3 weeks after sowing, the test plants are treated at the one-leaf stage. The compounds of the invention, formulated in the form of wettable powders (WP) or as emulsion concentrates (EC), are then sprayed onto the green parts of the plants as aqueous suspension or emulsion at a water application rate equating to 600 to 800 l/ha with addition of 0.2% wetting agent. After the test plants have been left to stand in the greenhouse under optimal growth conditions for about 3 weeks, the action of the preparations is assessed visually in comparison to untreated controls (herbicidal action in percent (%): 100% activity=the plants have died, 0% activity=like control plants).

[18] = tested on: AMARE; assay: Pre-emergence herbicidal action against AMARE; assay type: in vivo, Amaranthus retroflexus; conditions: 320 g/ha
Outline: as §1

[19] = tested on: VERPE; assay: Pre-emergence herbicidal action against VERPE; assay type: in vivo, Veronica persica; conditions: 320 g/ha
Outline: as §1

| Structure (SMILES) | Pre-emergence action against ALOMY in % [1] [%] | Pre-emergence action against AVEFA in % [2] [%] | Pre-emergence action against DIGSA in % [3] [%] | Pre-emergence action against ECHCG in % [4] [%] | Pre-emergence herbicidal action against LOLRI in % [5] [%] | Pre-emergence action against SETVI in % [6] [%] | Pre-emergence action against ABUTH in % [7] [%] | Pre-emergence action against MATIN in % [8] [%] | Pre-emergence action against VIOTR in % [9] [%] | Post-emergence action against ALOMY in % [10] [%] | Post-emergence action against AVEFA in % [11] [%] | Post-emergence action against DIGSA in % [12] [%] | Post-emergence action against ECHCG in % [13] [%] | Post-emergence action against LOLRI in % [14] [%] | Post-emergence action against SETVI in % [15] [%] | Post-emergence action against ABUTH in % [16] [%] | Post-emergence action against HORMU in % [17] [%] | Pre-emergence action against AMARE in % [18] [%] | Pre-emergence action against VERPE in % [19] [%] |
| --- | --- | --- | --- | --- | --- | --- | --- | --- | --- | --- | --- | --- | --- | --- | --- | --- | --- | --- | --- |
| CC#Cc1cc(Cl)c(C2=C(O)C3(CCC(COC)C3)NC2=O)c(OC)c1 (stereo not shown) [Example I-72] | 100 | 100 | 100 | 100 | 100 | 100 | 100 | 100 | 100 | 90 | 100 | 100 | 100 | 100 | 100 |  |  |  |  |
| CC#Cc1cc(Cl)c(C2=C(OC(=O)OCC)C3(CCC(COCC)C3)NC2=O)c(OC)c1 (stereo not shown) [Example P-26] |  |  |  |  |  |  |  |  |  | 100 | 100 | 100 | 100 | 100 | 100 | 80 | 100 |  |  |
| CC#Cc1cc(C)c(C2=C(O)C3(CCC(COCC)C3)NC2=O)c(Cl)c1 (stereo not shown) [Example I-17] | 100 | 100 | 100 | 100 | 100 | 100 | 90 | 90 | 100 | 100 | 90 | 100 | 100 | 100 | 100 |  |  | 100 | 90 |
| CC#Cc1cc(Cl)c(C2=C(OC(=O)OCC)C3(CCC(COC)C3)NC2=O)c(OC)c1 (stereo not shown) [Example P-98] | 100 | 100 | 100 | 100 | 100 | 100 | 90 | 90 | 100 | 100 | 90 | 100 | 100 | 100 | 100 |  |  | 100 | 100 |
| CC#Cc1cc(Cl)c(C2=C(O)C3(CCC(COC)C3)NC2=O)c(OC)c1 (stereo not shown) [Example I-73] | 100 | 100 | 100 | 100 | 100 | 100 | 100 | 90 | 100 | 100 | 100 | 100 | 100 | 100 | 100 |  |  | 100 | 90 |
| CC#Cc1cc(Cl)c(C2=C(OC(=O)C(C)C)C3(CCC(COCC)C3)NC2=O)c(OC)c1 (stereo not shown) [Example P-25] |  |  |  |  |  |  |  |  |  | 100 | 100 | 100 | 100 | 100 | 100 | 90 | 100 |  |  |
